# Active and inactive are the calls of the source. The calls are words filed in the database; no cut-off is given here.
# How the values were obtained:
# [1] = system: P388; assay: Antineoplastic activity against mouse P388 cells allografted in CDF1 mouse assessed as survival at 20 mg/kg qd for 9 days; assay type: functional, organism-based; set-up: dose 20 mg/kg
# [2] = system: Colon 26; assay: Antineoplastic activity against mouse Colon 26 cells allografted in CDF1 mouse at 3.75 mg/kg qd for 9 days relative to control; assay type: functional
# [3] = system: P388; assay: Antineoplastic activity against mouse P388 cells allografted in CDF1 mouse assessed as survival at 5 mg/kg qd for 9 days; assay type: functional, organism-based; set-up: dose 5 mg/kg
# [4] = system: L1210; assay: Antineoplastic activity against mouse L1210 cells allografted in CDF1 mouse assessed as survival at 1.88 mg/kg qd for 9 days; assay type: functional, organism-based; set-up: dose 1.88 mg/kg
# [5] = system: B16; assay: Antineoplastic activity against mouse B16 cells allografted in BDF1 mouse assessed as survival at 30 mg/kg qd for 9 days; assay type: functional, organism-based; set-up: dose 30 mg/kg
# [6] = system: Colon 26; assay: Antineoplastic activity against mouse Colon 26 cells allografted in CDF1 mouse assessed as survival at 7.5 mg/kg qd for 9 days; assay type: functional, organism-based; set-up: dose 7.5 mg/kg
# [7] = system: B16; assay: Antineoplastic activity against mouse B16 cells allografted in BDF1 mouse assessed as survival at 1.88 mg/kg qd for 9 days; assay type: functional, organism-based; set-up: dose 1.88 mg/kg
# [8] = system: B16; assay: Antineoplastic activity against mouse B16 cells allografted in BDF1 mouse at 15 mg/kg qd for 9 days relative to control; assay type: functional
# [9] = system: P388; assay: Antineoplastic activity against mouse P388 cells allografted in CDF1 mouse assessed as survival at 2.5 mg/kg qd for 9 days; assay type: functional, organism-based; set-up: dose 2.5 mg/kg
# [10] = system: L1210; assay: Antineoplastic activity against mouse L1210 cells allografted in CDF1 mouse at 1.88 mg/kg qd for 9 days relative to control; assay type: functional
# [11] = system: Colon 26; assay: Antineoplastic activity against mouse Colon 26 cells allografted in CDF1 mouse at 15 mg/kg qd for 9 days relative to control; assay type: functional
# [12] = system: P388; assay: Antineoplastic activity against mouse P388 cells allografted in CDF1 mouse at 20 mg/kg qd for 9 days relative to control; assay type: functional
# [13] = system: Colon 26; assay: Antineoplastic activity against mouse Colon 26 cells allografted in CDF1 mouse at 7.5 mg/kg qd for 9 days relative to control; assay type: functional
# [14] = system: L1210; assay: Antineoplastic activity against mouse L1210 cells allografted in CDF1 mouse assessed as survival at 15 mg/kg qd for 9 days; assay type: functional, organism-based; set-up: dose 15 mg/kg
# [15] = system: B16; assay: Antineoplastic activity against mouse B16 cells allografted in BDF1 mouse at 1.88 mg/kg qd for 9 days relative to control; assay type: functional
# [16] = system: L1210; assay: Antineoplastic activity against mouse L1210 cells allografted in CDF1 mouse at 3.75 mg/kg qd for 9 days relative to control; assay type: functional
# [17] = system: L1210; assay: Antineoplastic activity against mouse L1210 cells allografted in CDF1 mouse at 15 mg/kg qd for 9 days relative to control; assay type: functional
# [18] = system: P388; assay: Antineoplastic activity against mouse P388 cells allografted in CDF1 mouse at 10 mg/kg qd for 9 days relative to control; assay type: functional
# [19] = system: Colon 26; assay: Antineoplastic activity against mouse Colon 26 cells allografted in CDF1 mouse at 1.88 mg/kg qd for 9 days relative to control; assay type: functional
# [20] = system: B16; assay: Antineoplastic activity against mouse B16 cells allografted in BDF1 mouse at 30 mg/kg qd for 9 days relative to control; assay type: functional
# [21] = system: B16; assay: Antineoplastic activity against mouse B16 cells allografted in BDF1 mouse assessed as survival at 3.75 mg/kg qd for 9 days; assay type: functional, organism-based; set-up: dose 3.75 mg/kg
# [22] = system: Colon 26; assay: Antineoplastic activity against mouse Colon 26 cells allografted in CDF1 mouse assessed as survival at 15 mg/kg qd for 9 days; assay type: functional, organism-based; set-up: dose 15 mg/kg
# [23] = system: P388; assay: Antineoplastic activity against mouse P388 cells allografted in CDF1 mouse at 2.5 mg/kg qd for 9 days relative to control; assay type: functional
# [24] = system: Colon 26; assay: Antineoplastic activity against mouse Colon 26 cells allografted in CDF1 mouse assessed as survival at 3.75 mg/kg qd for 9 days; assay type: functional, organism-based; set-up: dose 3.75 mg/kg
# [25] = system: B16; assay: Antineoplastic activity against mouse B16 cells allografted in BDF1 mouse at 3.75 mg/kg qd for 9 days relative to control; assay type: functional
# [26] = system: L1210; assay: Antineoplastic activity against mouse L1210 cells allografted in CDF1 mouse assessed as survival at 7.5 mg/kg qd for 9 days; assay type: functional, organism-based; set-up: dose 7.5 mg/kg
# [27] = system: P388; assay: Antineoplastic activity against mouse P388 cells allografted in CDF1 mouse assessed as survival at 10 mg/kg qd for 9 days; assay type: functional, organism-based; set-up: dose 10 mg/kg
# [28] = system: L1210; assay: Antineoplastic activity against mouse L1210 cells allografted in CDF1 mouse at 7.5 mg/kg qd for 9 days relative to control; assay type: functional
# [29] = system: B16; assay: Antineoplastic activity against mouse B16 cells allografted in BDF1 mouse assessed as survival at 7.5 mg/kg qd for 9 days; assay type: functional, organism-based; set-up: dose 7.5 mg/kg
# [30] = system: L1210; assay: Antineoplastic activity against mouse L1210 cells allografted in CDF1 mouse assessed as survival at 3.75 mg/kg qd for 9 days; assay type: functional, organism-based; set-up: dose 3.75 mg/kg
# [31] = system: Colon 26; assay: Antineoplastic activity against mouse Colon 26 cells allografted in CDF1 mouse assessed as survival at 1.88 mg/kg qd for 9 days; assay type: functional, organism-based; set-up: dose 1.88 mg/kg
# [32] = system: B16; assay: Antineoplastic activity against mouse B16 cells allografted in BDF1 mouse assessed as survival at 15 mg/kg qd for 9 days; assay type: functional, organism-based; set-up: dose 15 mg/kg
# [33] = system: B16; assay: Antineoplastic activity against mouse B16 cells allografted in BDF1 mouse at 7.5 mg/kg qd for 9 days relative to control; assay type: functional
# [34] = system: P388; assay: Antineoplastic activity against mouse P388 cells allografted in CDF1 mouse at 5 mg/kg qd for 9 days relative to control; assay type: functional
smiles,measurement,setting,value
O=C1c2ccccc2C(=O)c2c(NCCNCCO)ccc(O)c21,Activity,[1],Active
same,T/C,[2],177%
same,Activity,[3],Active
same,Activity,[4],Active
same,Activity,[5],Active
same,Activity,[6],Active
same,Activity,[7],Active
same,T/C,[8],271%
same,Activity,[9],Active
same,T/C,[10],136%
same,T/C,[11],182%
same,T/C,[12],178%
same,T/C,[13],196%
same,Activity,[14],Active
same,T/C,[15],157%
same,T/C,[16],147%
same,T/C,[17],151%
same,T/C,[18],342%
same,T/C,[19],162%
same,T/C,[20],326%
same,Activity,[21],Active
same,Activity,[22],Active
same,T/C,[23],216%
same,Activity,[24],Active
same,T/C,[25],201%
same,Activity,[26],Active
same,Activity,[27],Active
same,T/C,[28],193%
same,Activity,[29],Active
same,Activity,[30],Active
same,Activity,[31],Active
same,Activity,[32],Active
same,T/C,[33],254%
same,T/C,[34],226%

# Source: ChEMBL document CHEMBL3244053, “Structural modification study of bis(substituted aminoalkylamino)anthraquinones. An evaluation of the relationship of the [2-[(2-hydroxyethyl)amino]ethyl]amino side chain with antineoplastic activity” (1979)
